In article PMC10047683, “A Novel Family of Lysosomotropic Tetracyclic Compounds for Treating Leukemia” (Cancers, 2023):

What was measured:
[1] = ADME-Tox: solubility; type: physicochemical
Method: (§1) All ADMET studies were performed in Eurofins Discovery Services (CEREP laboratories, Celle-Lévescault France). The pharmacokinetic studies were performed in Draconis Pharma SL (Barcelona, Spain) in CD-1 mice treated with 30 mg/kg EDK87 or EDK88 via SC or OG. Blood was collected by cardiac puncture at 0.5, 1, 2, 4, or 24 h.

[2] = system: primary AML samples; assay: Cytotoxicity in primary AML samples (flow cytometry, blast gate); type: cell-based, human
Source text: Primary AML samples were obtained at diagnosis from patients diagnosed at Hospital Clínic of Barcelona (Spain) and Hospital Germans Trias i Pujol (Badalona, Spain). AML diagnosis, classification, and risk stratification were based on the latest revised WHO criteria (Supplementary Table S1). Clinical characteristics of AML patients are summarized in Supplementary Table S1. Mononuclear cells (MNCs) were isolated with Ficoll density gradient centrifugation (GE Healthcare, Chicago, IL, USA). All patients provided their written informed consent in accordance with the Declaration of Helsinki, and the study was approved by the corresponding ethics committees. Mature blood MNCs were isolated from healthy donors’ buffy coats provided by Banc de Sang i Teixits (BSiT, Barcelona, Spain). Umbilical-cord blood was provided by BSiT, and MNCs were depleted for lineage marker-positive cells using magnetic separation with the Human Lineage Cell Depletion kit (Miltenyi Biotec, North Rhine-Westphalia, Germany) following the manufacturer’s recommendations.
(§2) First, 2 × 10^5 (72 h assays in cell lines (Supplementary File S1)), 3 × 10^5 (48 h assays in cell lines) or 7.5 × 10^5 (primary AML, healthy donor buffy coats) cells per mL were cultured in 96-well plates, and all drugs were added at the indicated concentrations. In α-tocopherol experiments, cells were treated with growing concentrations of α-tocopherol and EDK drugs for 48 h. In the NAC and 3MA experiments, treatment was simultaneous with EDK compounds. In glucose deprivation experiments, cells were cultivated with a standard medium (glucose high, 2 g/L), a standard medium without glucose, or a standard medium with galactose (2 g/L) and without glucose. Cell viability was measured via 7-AAD (eBioscience) exclusion and Hoechst33342 (Sigma-Aldrich, St. Louis, MO, USA) positivity staining via flow cytometry, and the cell count was obtained through volume. In the experiments with the primary cells, analyses were performed inside the blast population as detected via blast gates (CD45^low SSC^int). For solid tumor cell lines, viability was analyzed using CellTiter-Glo® Luminescent Cell Viability Assay (Promega).

[3] = system: primary AML samples (lineage-depleted umbilical cord blood cells as healthy counterpart); assay: Clonogenicity assay; type: cell-based, human
Method: 1,000 cells of AML cell lines or 50,000 primary cells (both AML and lin-depleted UCB) were treated at the indicated concentration for 18 h, and cultured in 1 mL of MethoCult H4034 Optimum (StemCell Technologies, Vancouver, BC, Canada).
Colonies were screened based on morphology and cellularity at day 7 (cell lines) […]
Calcium mobilization assay
1 x 10^6 cells per mL were loaded for 30’ at 37 °C with the Fura-2-AM probe (Thermo Fisher) at a final 2 µM concentration in pre-warmed calcium- and magnesium-free Hanks BSA solution. Cells were then washed and resuspended in Hanks BSA solution with calcium and magnesium at 3 x 10^5 cells per mL. In parallel, 50µL of drugs in Hanks BSA solution with calcium and magnesium were added to 96-well black wall clear bottom plates and background fluorescence was read at Ex340/Em508 and Ex380/Em508. Cells were then added to the plate (50µL/well) and fluorescence was acquired at indicated timepoints using a Synergy HT Multi-Detection Microplate Reader (BioTek). For the analysis, all values were subtracted their corresponding background fluorescence, and the ratio 340/380 was calculated. Finally, ratios were normalized to vehicle-treated […]
Semi-Quantitative Real Time PCR

[4] = system: KG-1; assay: 7AAD and annexin-V staining, flow cytometry; type: cell-based; conditions: 10 µM, 24 h, representative plot
Method: (§3) Seahorse studies were performed using the Agilent Seahorse XF Real-Time ATP Rate Assay Kit. Briefly, MonoMac1 and HL60 cells were suspended in complete medium at a concentration of 5 × 10^5 cells per ml and treated with EDK-87/EDK-88 with the indicated compounds for 18 h. Cells were washed and suspended in Seahorse medium (Seahorse XF medium with 2 mM glutamine, 10 mM glucose, 2 mM pyruvate) at a concentration of 1.4 × 10^6 (Mono Mac1) and 2.4 × 10^6 (HL60) cells per mL; 50 μL per well were seeded in 96-well Seahorse plates precoated with polylysine, centrifuged, and left to adhere for 20 min at 37 °C before adding prewarmed Seahorse medium to a final volume of 180 μL per well. Basal OCR and ECAR were measured, and the ATP rate assay was performed with the sequential injection of 1.5 μM oligomycin and 0.5 μM rotenone/antimycin A. A detailed description of this protocol was provided by the manufacturers. Mitochondrial ROS was quantified using the MitoSOX Red Mitochondrial Superoxide Indicator (Thermo Fischer Scientific, Waltham, MA, USA), as previously described. The activation of executive caspases was determined using CaspaseGlo® 3/7 Assay (Promega), following the manufacturer’s recommendations. The detection of Annexin-V staining was also described previously.

[5] = system: MonoMac-1; assay: 7AAD and annexin-V staining, flow cytometry; type: cell-based; conditions: 10 µM, 24 h, representative plot
Method: as §3

[6] = system: SKM-1; assay: Dose-response viability curves in AML cell lines; type: cell-based; conditions: Homo sapiens, 48 h
Method: as §2

[7] = ADME-Tox: clearance / metabolic rate; type: in vitro ADME
Method: as §1

## CN1CCC(=C2c3ccccc3-c3c2sc2ccccc32)CC1 [EDK-87]
[1]
  solubility as compared to EDK-88: lower
[2]; 14 primary AML samples, 72 h, EDK-87 10 and 25 µM, EDK-88 5 and 10 µM assayed
  reduced the numbers of primary leukemic cells: 43% ± 8.5
[2]; AML sample #61, 5 µM, 72 h
  # Live cells refer to control: 112%
[2]; AML sample #61, 10 µM, 72 h
  # Live cells refer to control: 107%
[2]; AML sample #61, 25 µM, 72 h
  # Live cells refer to control: 47%
[2]; AML sample #63, 5 µM, 72 h
  # Live cells refer to control: 71%
[2]; AML sample #63, 10 µM, 72 h
  # Live cells refer to control: 37%
[2]; AML sample #63, 25 µM, 72 h
  # Live cells refer to control: 13%
[2]; AML sample #98, 5 µM, 72 h
  # Live cells refer to control: 59%
[2]; AML sample #98, 10 µM, 72 h
  # Live cells refer to control: 26%
[2]; AML sample #98, 25 µM, 72 h
  # Live cells refer to control: 5%
[2]; AML sample #130, 5 µM, 72 h
  # Live cells refer to control: 97%
[2]; AML sample #130, 10 µM, 72 h
  # Live cells refer to control: 97%
[2]; AML sample #130, 25 µM, 72 h
  # Live cells refer to control: 35%
[2]; AML sample #132, 5 µM, 72 h
  # Live cells refer to control: 74%
[2]; AML sample #132, 10 µM, 72 h
  # Live cells refer to control: 60%
[2]; AML sample #133, 5 µM, 72 h
  # Live cells refer to control: 60%
[2]; AML sample #133, 10 µM, 72 h
  # Live cells refer to control: 19%
[2]; AML sample #134, 5 µM, 72 h
  # Live cells refer to control: 97%
[2]; AML sample #134, 10 µM, 72 h
  # Live cells refer to control: 89%
[2]; AML sample #135, 5 µM, 72 h
  # Live cells refer to control: 94%
[2]; AML sample #135, 10 µM, 72 h
  # Live cells refer to control: 80%
[2]; AML sample #135, 25 µM, 72 h
  # Live cells refer to control: 14%
[2]; AML sample #136, 5 µM, 72 h
  # Live cells refer to control: 97%
[2]; AML sample #136, 10 µM, 72 h
  # Live cells refer to control: 51%
[2]; AML sample #136, 25 µM, 72 h
  # Live cells refer to control: 2%
[2]; AML sample #141, 5 µM, 72 h
  # Live cells refer to control: 77%
[2]; AML sample #141, 10 µM, 72 h
  # Live cells refer to control: 52%
[2]; AML sample #147, 5 µM, 72 h
  # Live cells refer to control: 17%
[2]; AML sample #148, 5 µM, 72 h
  # Live cells refer to control: 47%
[2]; AML sample #148, 10 µM, 72 h
  # Live cells refer to control: 5%
[2]; AML sample #152, 5 µM, 72 h
  # Live cells refer to control: 83%
[2]; AML sample #152, 10 µM, 72 h
  # Live cells refer to control: 56%
[2]; AML sample #153, 5 µM, 72 h
  # Live cells refer to control: 78%
[2]; AML sample #153, 10 µM, 72 h
  # Live cells refer to control: 65%
[2]; primary AML vs healthy-donor blood cells
  therapeutic window (viability): 2.4
[3]; primary AML samples
  clonogenicity, effect in AML: 77.9% ± 9.2
[3]; primary AML vs lineage-depleted umbilical cord blood
  therapeutic window (clonogenicity): 3.2
[4]
  Q1 of 7AAD/annexin V plot: 0.61
  Q2 of 7AAD/annexin V plot: 10.0
  Q3 of 7AAD/annexin V plot: 50.3
  Q4 of 7AAD/annexin V plot: 39.1
[5]
  Q1 of 7AAD/annexin V plot: 2.96
  Q2 of 7AAD/annexin V plot: 9.41
  Q3 of 7AAD/annexin V plot: 21.7
  Q4 of 7AAD/annexin V plot: 65.9
[6]
  EC50: 8.1 ± 1.8 µM
[7]
  metabolic rate as compared to EDK-88: higher
